# Measurements reported in patent publication US7071206B2, “Agents for treating neurodegenerative disorders” (Medivation, Inc., priority 1995, dated 2006).
# Columns and labels:
# [1] = system: patients suffering from Alzheimer's disease; assay: Clinical trial of dimebon: blood and urea analysis; assay type: in vivo, human
# Excerpt: By the 8th week of the treatment the amount of leukocytes was normal again.
# NMDA receptor = assay: Anti-NMDA activity: prevention of convulsions and death caused by NMDA injected into the lateral ventricle of the brain; assay type: in vivo; settings: mice; i.p. 40 minutes before NMDA 0.1 μg into the lateral ventricle; probit analysis
# Procedure: The experiment was conducted in white non-inbred male mice of 20–24 g of weight. A solution of the test agent in 0.2 ml of 5% aqueous dimethylsulfoxide was injected intraperitoneally 40 minutes before the injection of NMDA into the lateral vehicle of the brain. For the mice that had been prepared beforehand for the experiment a skin flap on the head of each mouse was removed under ether anestesia and a hole was bored in the skull by a fine drill. NMDA (0.1 μg) in a volume of 1.4 μl was injected with a microsyringe. The microsyringe needle was immersed to a depth of 2.5 mm. After the operation, the wound was treated with a 2% novocaine solution. […] The accuracy of NMDA injection was monitored by injection of methylene blue. Two to 4 hours after the operation, the mice were used for a pharmacological experiment.
# The animals inoculated with a saline solution were used as control.
# Each dose of the agent was tested in a croup of 6–8 animals. The ED50 value (the dose of the agent preventing the development of convulsions and the death of 50% of the animals) was determined by a probit-analysis method (Litchfild J. T., Wicoxon F. J.—Pharmacol. Exp. Therap., 1949, v. 96, p. 99–114).
# [2] = system: patients suffering from Alzheimer's disease; assay: Clinical trial of dimebon tablets, Hazegawa's scale (0 score = poorest result); assay type: in vivo, human
# Procedure: The test was carried out under the direct supervision by two of the inventors, namely E. E. Bukatina and V. Grigorieva, in 14 patients who agreed to take part in the tests, 13 of whom lived in a boarding house for senile persons and one patient lived with their family.
# Alzheimer's disease was diagnosed on the basis of criteria ICD-10 NINCDS ADRDA.
# Dimebon in the form of tablets (comprising 10 mg of dimebon, 30 mg of lactose, 5 mg of magnesium stearate was prescribed for oral administration in a dose of 0.02 g three to times a day. The patients living in the boarding house received dimebon for 58 days. A patient (observation 14) who was under outpatient observation continued taking the agent for a month after the completion of the tests.
# Before the treatment with dimebon, and at 4 and 8 weeks after treatment the patients were examined according to Hazegawa's scale and the inventors' scale (“Social and Clinical Psychiatry”, 1992, No.4, pp.29–37) which includes the following indexes: (1) orientation in locality, time, immediate surroundings and one's own personality; (2) orientation in space; (3) memory for the past; (4) memory for the present; (5) “life in the past”; (6) (a) articulation, (b) difficulty in finding words, and distortion of words; (c) naming of objects; (d) following instructions; (7) concentration (of attention); (8) an affective sphere; (a) high spirits, (b) low spirits; (9) delirium; (10) hearing hallucinations; (11) visual hallucinations; (12) senile or senile-like confusion (when motion anxiety is accompanied by the revival of the past experience); (13) irritability; (14) anxiety; (15) asthenia; (16) headaches; (17) dizziness; (18) tearfulness; (19) spontaneous activity; (20) elementary self-service; and (21 control of sphincters.
# According to the Hazegawa's scale, the 0 score indicates the poorest result; on the contrary, according to the inventors' scale, the 0 score indicates the absence of a symptom 4 score indicates the greatest manifestation thereof. […] Before the therapy was started, the patients had been independently examined by two doctors who used the inventors' scale. The examination during the treatment was carried out by the doctors using both the scales. The evaluation according to all the inventors' scale points during all the tests and their variations during the treatment with dimebon are given in the Appendix.
# Both absolute evaluations of the signs under investigation (the evaluation prior to treatment is a mean evaluation of the two examinations) and variations in them were analysed in the course of therapy. In doing so, only those changes that were beyond the range of evaluations obtained in two pre-treatment examinations were taken into consideration. […]
structure (smiles),measurement,setting,value
"Cc1ccc2c(c1)c1c(n2CCc2ccc(C)nc2)CCN(C)C1 [No. 10, 2,8-dimethyl-5-[2-(6-methyl-3-pyridyl)ethyl]-2,3,4,5-tetrahydro-1H-pyrido[4,3-b]indole]",amount of leukocytes,"[1]; after 4 weeks, within normal limits, p<0.05",significant reduction
same,amount of leukocytes,[1]; by the 8th week,normal again
same,hematological and biochemical status,[1]; during the course of the treatment,No pathologic changes
same,ED50 (dose preventing the development of convulsions and the death of 50% of the animals),NMDA receptor,42 ± 6 mg/kg
same,"Evaluation according to Hazegawa's scale, M +/− m","[2]; mean of 7 patients with nonprofound dementia, after 4 weeks",20.79 +/− 1.85
same,"Evaluation according to Hazegawa's scale, M +/− m","[2]; mean of 7 patients with nonprofound dementia, after 8 weeks",23 +/− 1.17
same,"Evaluation according to Hazegawa's scale, M +/− m","[2]; mean of 14 patients, after 4 weeks",14.68 +/− 1.87
same,"Evaluation according to Hazegawa's scale, M +/− m","[2]; mean of 14 patients, after 8 weeks",15.68 +/− 2.39
